Results reported in US8940774B2, “Tris-Quaternary Ammonium Salts and Methods for Modulating Neuronal Nicotinic Acetylcholine Receptors” (University of Kentucky Research Foundation, priority 2005, dated 2015).

What was measured:
[1] = molecular target: T1, α7-type neuronal nicotinic acetylcholine receptors (Rattus norvegicus, UniProt Q05941); experiment: Inhibition of [3H]Methyllycaconitine (MLA) binding assay, rat brain membranes; details: % inhibition at 100 nM concentration of analog; rat brain membranes; 2.5 nM [3H]MLA; read-out: Inhibition of [3H]MLA binding
T1 construct: from tissue; host or cells: rat brain membranes (whole brain without cortex, striatum and cerebellum)
T1 sequence (Q05941 23-502): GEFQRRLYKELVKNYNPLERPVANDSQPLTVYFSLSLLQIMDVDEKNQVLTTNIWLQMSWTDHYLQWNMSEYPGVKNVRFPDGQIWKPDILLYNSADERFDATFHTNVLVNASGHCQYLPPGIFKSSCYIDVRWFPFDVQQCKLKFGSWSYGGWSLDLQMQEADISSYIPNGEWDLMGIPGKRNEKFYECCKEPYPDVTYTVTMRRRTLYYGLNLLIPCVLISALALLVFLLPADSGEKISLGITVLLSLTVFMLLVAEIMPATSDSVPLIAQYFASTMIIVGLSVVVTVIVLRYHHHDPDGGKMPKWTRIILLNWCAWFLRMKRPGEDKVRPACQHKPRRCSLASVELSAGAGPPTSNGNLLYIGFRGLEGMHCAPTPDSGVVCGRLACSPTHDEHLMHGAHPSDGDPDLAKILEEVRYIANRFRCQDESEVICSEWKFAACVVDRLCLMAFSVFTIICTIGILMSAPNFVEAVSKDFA
Procedure: Rat brain was dissected into the whole brain tissue without cortex, striatum and cerebellum and was frozen in liquid nitrogen and stored at −70° C. until use. The brain tissue was homogenized with a Tekmar Polytron (setting 40) in 20 volumes of ice-cold hypotonic buffer (2 mM HEPES, 14.4 mM NaCl, 0.15 mM KCl, 0.2 mM CaCl2 and 0.1 mM MgSO4, pH=7.5). The homogenate was incubated at 37° C. for 10 minutes and centrifuged at 25,000 g for 15 minutes at […] The pellet was washed 3 times more by resuspension in 20 volumes of the same buffer and centrifugation at the above parameters. The final pellet was stored at −20° C. under 4.6 mL of the incubation buffer and was suspended just before the incubation with radioligand.
The binding of [^3H]MLA to probe α7-type neuronal nicotinic acetylcholine receptors was measured using a modification of the method of Davies at al., “Characterisation of the binding of [^3H]methyllycaconitine (MLA): a radioligand for labelling α7-type neuronal nicotinic acetylcholine receptors,” Neuropharmacology, 38, 679-690 (1999). [^3H]MLA (25.4 Ci/mmol) was purchased from Tocris Cookson Ltd., Bristol, U.K. Binding was performed in duplicate, in a final volume of 250 μL of the incubation medium, containing 20 mM HEPES, 144 mM NaCl, 1.5 mM KCl, 2 mM CaCl2, 1 mM MgSO4 and 0.05% BSA, pH=7.5. Reaction was initiated by the addition of 100 μL of membrane suspension to the samples containing a desired concentration of test compounds and […] [^3H]MLA (final concentration) and incubated for 2 hours it room temperature. Total binding was measured in the absence of unlabelled ligand, and nonspecific binding was determined by the presence of 1 μM unlabelled MLA. The binding reaction was terminated by dilution of samples with 3 mL of ice-cold incubation buffer followed by immediate filtration through glass fiber filters (S&S, grade #32, presoaked in 0.5% polyethylenimine) using a Brandel harvester system. Filters were rinsed three times with 3 mL of ice-cold buffer, transferred to scintillation vials and 4 mL of scintillation cocktail was added. Protein was measured using the Bradford dye-binding procedure with bovine serum albumin as the standard.
The tris-quaternary ammonium salts were evaluated for their ability to displace [^3H]MLA binding from rat brain membranes.
Data are % inhibition at 100 nM concentration of analog for at least 1-3 independent experiments. Specific binding in the [^3H]NIC binding assay is calculated at the difference between the total binding of [^3H]NIC and nonspecific binding in the presence of 10 μM cold nicotine. Specific binding for the [^3H]MLA binding assay is calculated as the difference between the total binding of 2.5 nM [^3H]MLA to the receptors alone and its nonspecific binding in the presence of 1 μM cold MLA. Analog-induced inhibition of nicotine-evoked [^3H]DA release is calculated as a percent of that in the absence of analog.

[2] = molecular target: T2, α7 nicotinic receptor subtype expressed in Xenopus oocytes (Rattus norvegicus, UniProt Q05941); experiment: Inhibition of ACh evoked current through nicotinic receptors expressed in Xenopus oocytes (α7); type: cell-based; details: co-application with acetylcholine; compared with α4β2, α3β2, α3β4; FIGS. 1-3
T2 construct: expressed in transfected cells; host or cells: Xenopus laevis oocytes injected with subunit cRNA
T2 sequence (Q05941 23-502): as above
Procedure: Rat nicotinic receptor cDNAs clones were linearized and purified, and RNA transcripts were prepared in vitro using the appropriate mMessage mMachine kit. Mature (>9 cm) female Xenopus laevis African toads (Nasco, Ft. Atkinson, Wis.), housed in the Division of Lab Animal Resources at the University of Florida were used as a source of oocytes. Prior to surgery, frogs were anesthetized by placing the animal in a 1.5 g/L solution of MS222 for 30 minutes. Oocytes were removed from an incision made in the abdomen. In order to remove the follicular cell layer, harvested oocytes were treated with 1.25 mg/mL collagenase for 2 hours at room temperature in calcium-free Barth's solution (88 mM NaCl, 1 mM KCl, 2.38 mM NaHCO3, 0.82 mM MgSO4, 15 mM HEPES, pH 7.6, 0.1 mg/mL gentamicin sulfate). Subsequently, stage 5 oocytes were isolated and injected with 5-20 ng in 50 nL each of the appropriate subunit cRNAs. Recordings were made 2 to 15 days after injection.
Electrophysiology experiments were conducted using OpusXpress 6000A (Axon instruments, Union City, Calif.), or manual oocyte two-electrode voltage-clamp systems as previously reported (Stokes et al., 2004). […]
Each oocyte received two initial control applications of ACh, then a nicotine or analog application, and then a follow-up control application of ACh. […] Responses to each nicotine or analog application were calculated relative to the preceding ACh control responses in order to normalize the data, compensating for the varying levels of channel expression among the oocytes. […] Responses for α7 receptors were calculated as net charge (Papke et al., 2002). For subtypes other than α7, responses were calculated from the peak current amplitudes. Means and standard errors (SEM) were calculated from the normalized responses of at least four oocytes for each drug concentration. […]
For concentration-response relations, data derived from net-charge analyses were plotted using Kaleidagraph 3.0.2 (Abelbeck Software; Reading, Pa.) and curves were generated from the Hill equation […]

CCCCc1ccc[n+](CCCC#Cc2cc(C#CCCC[n+]3cccc(CCCC)c3)cc(C#CCCC[n+]3cccc(CCCC)c3)c2)c1 [GZ551A, 1,3,5-tris-[5-(3-butyl-pyridinium)-pent-1-ynyl]-benzene tribromide]
inhibition at 0.1 µM [1]: 30 ± 2% | inhibition of ACh response at α7 nicotinic receptor subtype (concentration-response, in words) [2]: potent and selective inhibitor

CN1CCC[C@H]1c1ccc[n+](CCCC#Cc2cc(C#CCCC[n+]3cccc([C@@H]4CCCN4C)c3)cc(C#CCCC[n+]3cccc([C@@H]4CCCN4C)c3)c2)c1 [GZ551B, 1,3,5-tris-{5-[3-(1-methyl-2-S-pyrrolidinyl)pyridinium]-pent-1-ynyl}-benzene tribromide]
inhibition at 0.1 µM [1]: 4.2 ± 2.2% | inhibition of ACh response at α7 nicotinic receptor subtype (concentration-response, in words) [2]: most potent as an inhibitor of the α7 nicotinic receptor subtype, but was not selective

CN1CCC[C@H]1c1ccc[n+](CCCCCc2cc(CCCCC[n+]3cccc([C@@H]4CCCN4C)c3)cc(CCCCC[n+]3cccc([C@@H]4CCCN4C)c3)c2)c1 [GZ558C, 1,3,5-tris-{5-[3-(1-methyl-2-S-pyrrolidinyl)pyridinium]-pentyl}-benzene tribromide]
inhibition at 0.1 µM [1]: 7.9 ± 7.1% | inhibition of ACh response at α7 nicotinic receptor subtype (concentration-response, in words) [2]: potent and selective inhibitor
